Test results: US20030109486A1 (priority 2001, published 2003)
Entries after “also recorded” stand apart in the source; their conditions may differ. Read-outs that look alike come from different tables or passages of the source.

Experiments:
[1] = Solubility in isotonic aqueous solutions of sodium chloride; settings: salts
Airway mucosa [2] = settings: Patients, cited from earlier work; for Mucociliary clearance: epithelia of cystic fibrosis patients; for Chloride secretion: observed in epithelia of healthy participants and cystic fibrosis patients
Airway mucosa [3] = settings: Cells/Organ; cited from earlier work
Tumor [4] = settings: Cells/Organ; cited from earlier work
Tumor [5] = settings: Patients; cited from earlier work
SA + AV node = settings: Cells/Organ; cited from earlier work
Tumor [6] = settings: Animals; cited from earlier work
[7] = Patients; cited from earlier work
[8] = Patients; cited from earlier work; remark: listed apart in the source
[9] = Cells/Organ; cited from earlier work
[10] = intravenous; cited from earlier work
[11] = cited from earlier work
[12] = low doses, intravenous; cited from earlier work
[13] = cited from earlier work; for whole blood ATP concentration, higher than the pretreatment values: 24 hr of infusion, average
[14] = Patients; cited from earlier work; remark: listed apart in the source
[15] = cited from earlier work; remark: listed apart in the source
[16] = cited from earlier work; remark: listed apart in the source
[17] = tested on: non-small cell lung cancer; settings: cited from earlier work
[18] = single arm study; cited from earlier work
[19] = of seven children; infused directly into the pulmonary artery for 30 minutes to 30 hours; cited from earlier work
[20] = tested on: tissue type plasminogen activator (tPA); settings: infusions in humans; cited from earlier work
[21] = Animals; cited from earlier work
[22] = infusions; rat kidney, rat lung, dog heart, rabbit lung, rat gut; cited from earlier work
[23] = intramuscular; cited from earlier work
[24] = intravenous, cited from earlier work
[25] = in vivo; cited from earlier work
[26] = Cells/Organ; cited from earlier work; remark: listed apart in the source
[27] = Stability of ATP solutions; assay type: physicochemical
Method: An example of a clinical procedure in the treatment of ALI and ARDS is as follows. After determination of baseline, pre-treatment hemodynamic variables, blood gases and pH values, an ATP dose escalation procedure is initiated. ATP is provided as a sterile solution in single use vials. […] Storage of the clinical solution is at controlled refrigerated temperature (2° C.-8° C. ). […] The concentration of the final sterile solution for the infusion is 8 mg/ml.
The product must be stored at controlled refrigerated temperature (2° C.-[…]). At pH 6.7-7.2, the sodium salt in aqueous solution is stable.

[28] = Animals; cited from earlier work; remark: listed apart in the source
[29] = Patients; cited from earlier work; remark: listed apart in the source
[30] = Animals; cited from earlier work; remark: listed apart in the source
[31] = administration directly into the pulmonary artery or into the superior vena cava
[32] = healthy individuals, COPD patients, patients after surgical repair of congenital heart defects
[33] = 50 or 65 microgram/kg/min for 96 hr, once every 4 weeks
[34] = ATP infusion rate 500-1000 μg/kg/min
[35] = ATP infusion rate ≦100 μg/kg/min

For `Nc1ncnc2c1ncn2[C@@H]1O[C@H](COP(=O)(O)OP(=O)(O)O)[C@@H](O)[C@H]1O` [ADP, adenosine 5′-diphosphate], the “solubility in isotonic aqueous solutions of sodium chloride” value (from here on “solubility in isotonic aqueous solutions”) [1] was “high solubility”.
In the case of `Nc1ncnc2c1ncn2[C@@H]1O[C@H](CO)[C@@H](O)[C@H]1O` [adenosine, reference compound], the Mucociliary clearance (Airway mucosa [2]) is given as “Increased”, the Chloride secretion (Airway mucosa [2]) is given as “Increased” and the Chloride secretion (Airway mucosa [3]) is given as “Increased”. The Ciliary beat frequency (Airway mucosa [3]) was “Increased”, the Mucus secretion (Airway mucosa [3]) was “Increased” and the Surfactant secretion (Airway mucosa [3]) was “Increased”. For the same compound, the Water secretion (Airway mucosa [3]) was “Increased”, the Chemotherapy efficacy (Tumor [4]) was “Increased” and the Radiotherapy damage (Tumor [4]) was “Reduced”. The Radiotherapy efficacy (Tumor [4]) was “Increased”, the Tumor growth (Tumor [4]) was “Inhibited” and the “Cancer treatment: Weight loss” value (Tumor [5]) was “Inhibited”. The Tumor growth (Tumor [5]) was “Inhibited”, the “solubility in isotonic aqueous solutions” value [1] was “high solubility” and the “SA + AV node conduction” value (SA + AV node) was “Inhibited”. The “Cancer treatment: Weight loss” value (Tumor [6]) was “Inhibited”, the Chemotherapy efficacy (Tumor [6]) was “Increased” and the Radiotherapy damage (Tumor [6]) was “Reduced”. For the same compound, the Radiotherapy efficacy (Tumor [6]) was “Increased”, the Radiotherapy survival rate (Tumor [6]) was “Increased” and the Tumor growth (Tumor [6]) was “Inhibited”.
For `Nc1ncnc2c1ncn2[C@@H]1O[C@H](COP(=O)(O)OP(=O)(O)OP(=O)(O)O)[C@@H](O)[C@H]1O` [ATP, adenosine 5′-triphosphate], the Pulmonary hypertension [7] is listed as “Reduced”, the Mucociliary clearance (Airway mucosa [2]) is listed as “Increased” and the Chloride secretion (Airway mucosa [2]) is listed as “Increased”. The “SA + AV node conduction” value [8] was “Inhibited”, the Supraventricular tachycardias [8] was “Inhibited” and the “Shock: Organ function” value [9] was “Improved”. For the same compound, the Chloride secretion (Airway mucosa [3]) was “Increased”, the Ciliary beat frequency (Airway mucosa [3]) was “Increased” and the Mucus secretion (Airway mucosa [3]) was “Increased”. For the same compound, the Surfactant secretion (Airway mucosa [3]) was “Increased”, the Water secretion (Airway mucosa [3]) was “Increased” and the Cardiac Output [10] was “enhances”. For the same compound, the “portal and total hepatic blood flow” value [10] was “enhances”, the “renal and hepatic microcirculation” value [10] was “enhances” and the Chemotherapy efficacy (Tumor [4]) was “Increased”. The Radiotherapy damage (Tumor [4]) was “Reduced”, the Radiotherapy efficacy (Tumor [4]) was “Increased” and the Tumor growth (Tumor [4]) was “Inhibited”. For the same compound, the “severity of adverse experiences” value ([11]; 30-hr infusions, 20 up to 75 microgram/kg/min) was “generally mild”, the “Quality of Life domains” value ([11]; in vivo) was “improvements” and the body weight ([11]; in vivo) was “beneficial effects”. The “electrocardiograms in patients with chest discomfort” value ([11]; in vivo) was “did not exhibit changes suggestive of myocardial ischemia”, the “time to resolution of all side effects after lowering the rate of ATP infusion” value ([11]; in vivo) was “within minutes” and the voluntary muscle strength ([11]; in vivo) was “beneficial effects”. For the same compound, the resolving pulmonary hypertension [12] was “effective”, the “whole blood ATP concentration, higher than the pretreatment values” (shortened to “whole blood ATP concentration”) ([13]; 50 microgram/kg/min) was 63% and the “whole blood ATP concentration” value ([13]; 75 microgram/kg/min) was 67%. For the same compound, the “whole blood ATP concentration” value ([13]; 100 microgram/kg/min) was 113%, the “blood concentrations of ATP between 24 and 96 hr of the infusion” value ([13]; in vivo) was “relatively constant or slightly declined” and the Anaesthetic requirement [14] was “Reduced”. The “Blood pressure during surgery” value [14] was “Reduced”, the “Opioid requirement after surgery” value [14] was “Reduced” and the Pain [14] was “Reduced”. The maximum tolerated dose ([15]; 96-hr infusions, advanced non-small cell lung cancer) was 50 microgram/kg/min, the “highest dose easily tolerated” value ([15]; patients suffering from other cancers) was 100 microgram/kg/min and the Pulmonary Arterial Pressure [16, 31] was “reducing”. For the same compound, the Pulmonary Vascular Resistance [16, 31] was “reducing”, the Systemic Arterial Pressure [16, 31] was “without any direct effect” and the Systemic Vascular Resistance [16, 31] was “without any direct effect”. The Pulmonary Arterial Pressure [16, 32] was “significantly decreasing”, the Pulmonary Vascular Resistance [16, 32] was “significantly decreasing” and the “hematologic, renal, hepatic, or gastrointestinal toxicity” value [17, 33] was “No significant”. The “patients exhibiting stable disease after treatment” value [17, 33] was “majority of patients”, the tumor shrinking [17, 33] was “no significant” and the overall survival ([17]; as compared with historical data) was “beneficial effects”. For the same compound, the patient performance status ([17]; in vivo) was “beneficial effects”, the weight gain ([17]; in vivo) was “beneficial effects” and the several metabolic functions [18] was “beneficial”. The “children in whom hypertension crises were completely resolved and hemodynamic stability restored” value [19] was 4 children, the “Cancer treatment: Weight loss” value (Tumor [5]) was “Inhibited” and the Tumor growth (Tumor [5]) was “Inhibited”. For the same compound, the “release of tissue-type plasminogen activator (tPA)” value [20] was “profound acute release; also recorded: marked release”, the Anaesthetic requirement [21] was “Reduced” and the Pain [21] was “Reduced”. For the same compound, the “tissue injury during reperfusion after a preceding period of ischemia” value [22] was “protective effects”, the “protecting the intestinal mucosal structure and function” value [23] was “effective” and the “Cardiac Output” value [24, 34] was “Increase”. The “Heart Rate” value [24, 34] was “Increase”, the “Pulmonary Arterial Pressure” value [24, 34] was “Decrease” and the “Pulmonary Vascular Resistance” value [24, 34] was “Decrease”. For the same compound, the “Systemic Arterial Pressure” value [24, 34] was “Decrease”, the “Systemic Vascular Resistance” value [24, 34] was “Decrease” and the “Cardiac Output” value [24, 35] was “Small Increase”. For the same compound, the “Heart Rate” value [24, 35] was “No Change”, the “Pulmonary Arterial Pressure” value [24, 35] was “Decrease” and the “Pulmonary Vascular Resistance” value [24, 35] was “Decrease”. For the same compound, the “Systemic Arterial Pressure” value [24, 35] was “did not alter; also recorded: No Change”, the “Systemic Vascular Resistance” value [24, 35] was “Small Decrease” and the survival [25] was “significant positive effects”. The Glycogenolysis [26] was “Increased”, the “SA + AV node conduction” value (SA + AV node) was “Inhibited” and the “stability of the final ATP solutions at room temperature” value ([27]; final infusion solution 8 mg/ml in 0.5 normal saline, room temperature) was “at least 96 hours”. For the same compound, the “stability of the sodium salt in aqueous solution” value ([27]; pH 6.7-7.2) was “stable”, the “Cancer treatment: Weight loss” value (Tumor [6]) was “Inhibited” and the Chemotherapy efficacy (Tumor [6]) was “Increased”. For the same compound, the Radiotherapy damage (Tumor [6]) was “Reduced”, the Radiotherapy efficacy (Tumor [6]) was “Increased” and the Radiotherapy survival rate (Tumor [6]) was “Increased”. For the same compound, the Tumor growth (Tumor [6]) was “Inhibited”, the Pulmonary hypertension [28] was “Reduced” and the “Shock: Survival rate” value [29] was “Increased”. For the same compound, the “Shock: Organ function” value [30] was “Improved” and the “Shock: Survival rate” value [30] was “Increased”.
In the case of `Nc1ncnc2c1ncn2[C@@H]1O[C@H](COP(=O)(O)O)[C@@H](O)[C@H]1O` [AMP, adenosine 5′-monophosphate], the “solubility in isotonic aqueous solutions” value [1] is reported as “high solubility”.
